Measured values: the supplement of paper PMC10307832

Legend:
Test in all cases: relative viability (nuclei count vs DMSO), 5 days (fraction); higher = more cells survive
[1] = compound: COc1cc(Nc2ncc3c(n2)-c2ccc(Cl)cc2C(c2c(F)cccc2OC)=NC3)ccc1C(=O)O [Alisertib] + CC(C)C[C@H](NC(=O)[C@H](Cc1ccccc1)NC(=O)c1cnccn1)B(O)O [Bortezomib] (partner 0.002 µM)
How it was run: (§1)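 The day after seeding in 1536-well plates, lung cancer cell lines were treated by pin tool with a single drug, or with a fixed anchor-drug dose together with five library-drug doses (not always all listed) in √10 steps. After 5 days, a combined fix-and-stain solution (final 0.05% Triton X-100, 1% formaldehyde, 1 ug/ml Hoechst) was added. Nuclei counted on 4× images gave relative viability as treated counts over vehicle counts, reported as the median of duplicate plates.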

[2] = compound: COc1cc(Nc2ncc3c(n2)-c2ccc(Cl)cc2C(c2c(F)cccc2OC)=NC3)ccc1C(=O)O [Alisertib] + CC1(C)CCC(c2ccc(Cl)cc2)=C(CN2CCN(c3ccc(C(=O)NS(=O)(=O)c4ccc(N[C@H](CCN5CCOCC5)CSc5ccccc5)c(S(=O)(=O)C(F)(F)F)c4)cc3)CC2)C1 [Navitoclax] (partner 0.5 µM)
How it was run: as §1

[3] = compound: COc1cc(Nc2ncc3c(n2)-c2ccc(Cl)cc2C(c2c(F)cccc2OC)=NC3)ccc1C(=O)O [Alisertib] + CCNC(=O)c1noc(-c2cc(C(C)C)c(O)cc2O)c1-c1ccc(CN2CCOCC2)cc1 [Luminespib] (partner 0.01 µM)
How it was run: as §1

[4] = compound: COc1cc(Nc2ncc3c(n2)-c2ccc(Cl)cc2C(c2c(F)cccc2OC)=NC3)ccc1C(=O)O [Alisertib] + Cc1nc(Nc2ncc(C(=O)Nc3c(C)cccc3Cl)s2)cc(N2CCN(CCO)CC2)n1 [Dasatinib] (partner 0.075 µM)
How it was run: as §1

Cell Line	relative viability ([1]; first compound 0.005 µM)	relative viability ([1]; first compound 0.01581 µM)	relative viability ([1]; first compound 0.05 µM)	relative viability ([1]; first compound 0.1581 µM)	relative viability ([1]; first compound 0.5 µM)	relative viability ([2]; first compound 0.005 µM)	relative viability ([2]; first compound 0.01581 µM)	relative viability ([2]; first compound 0.05 µM)	relative viability ([2]; first compound 0.1581 µM)	relative viability ([2]; first compound 0.5 µM)	relative viability ([3]; first compound 0.005 µM)	relative viability ([3]; first compound 0.01581 µM)	relative viability ([3]; first compound 0.05 µM)	relative viability ([3]; first compound 0.1581 µM)	relative viability ([3]; first compound 0.5 µM)	relative viability ([4]; first compound 0.005 µM)	relative viability ([4]; first compound 0.01581 µM)	relative viability ([4]; first compound 0.05 µM)	relative viability ([4]; first compound 0.1581 µM)	relative viability ([4]; first compound 0.5 µM)
NCI-H1975	0.324	0.334	0.215	0.159	0.152	1.14	1.01	0.503	0.344	0.175	0.199	0.23	0.213	0.177	0.168	0.298	0.333	0.286	0.153	0.109
NCI-H1993	0.97	0.982	0.549	0.542	0.497	1.12	1.04	0.463	0.499	0.542	0.891	0.791	0.558	0.456	0.492	0.538	0.644	0.474	0.386	0.433
NCI-H2009	0.952	0.91	0.392	0.208	0.167	1.08	1.11	0.349	0.302	0.105	0.971	0.972	0.395	0.292	0.264	0.259	0.292	0.211	0.141	0.129
NCI-H2023	0.904	0.824	0.539	0.199	0.0763	0.955	0.885	0.656	0.282	0.132	0.807	0.671	0.321	0.127	0.0912	0.561	0.492	0.35	0.167	0.0881
NCI-H2085	0.923	0.979	0.73	0.327	0.394	1.15	1.03	0.401	0.278	0.247	0.419	0.341	0.309	0.342	0.329	0.233	0.203	0.207	0.184	0.171
NCI-H2087	0.88	0.702	0.186	0.172	0.199	0.868	0.742	0.164	0.153	0.153	0.191	0.136	0.155	0.16	0.115	0.776	0.628	0.137	0.113	0.123
NCI-H2126	1.03	1.08	0.993	0.526	0.351	0.819	0.874	0.574	0.276	0.266	0.785	0.834	0.601	0.274	0.285	0.55	0.553	0.48	0.231	0.215
NCI-H2228	0.809	0.827	0.406	0.142	0.134	0.829	0.672	0.564	0.0729	0.0587	0.111	0.117	0.112	0.144	0.186	0.414	0.416	0.248	0.0768	0.1
NCI-H2347	0.733	1.09	0.911	0.584	0.466	0.742	0.695	0.459	0.42	0.329	0.275	0.287	0.429	0.317	0.422	0.263	0.339	0.275	0.268	0.222
NCI-H2405	0.932	0.929	0.95	0.494	0.298	0.873	0.778	0.574	0.198	0.135	0.735	0.619	0.745	0.356	0.285	0.196	0.202	0.189	0.152	0.132
NCI-H3122	0.987	1.04	0.865	0.47	0.308	1.04	0.992	0.664	0.592	0.237	0.105	0.101	0.0716	0.0737	0.0805	0.581	0.664	0.498	0.103	0.134
PC-3 [JPC-3]	0.796	0.828	0.775	0.539	0.39	0.757	0.79	0.401	0.306	0.281	0.705	0.661	0.455	0.376	0.359	0.917	0.927	0.907	0.781	0.442
PC-14	0.876	0.732	0.515	0.208	0.0801	0.924	0.881	0.663	0.362	0.0849	0.177	0.141	0.146	0.134	0.151	0.213	0.248	0.177	0.0304	0.0192
RERF-LC-KJ	0.945	1.05	0.879	0.293	0.304	1.06	0.838	0.415	0.178	0.284	1.24	0.81	0.342	0.248	0.312	0.73	0.672	0.366	0.187	0.17
SK-LU-1	0.963	0.862	0.503	0.403	0.253	0.841	0.736	0.101	0.139	0.112	0.178	0.18	0.159	0.184	0.178	0.192	0.157	0.116	0.125	0.104
SW 1573	0.937	0.726	0.492	0.29	0.161	0.954	0.737	0.219	0.0904	0.0636	0.28	0.139	0.106	0.0766	0.102	0.329	0.299	0.141	0.159	0.0978
UMC-11	0.34	0.184	0.0876	0.107	0.122	0.241	0.163	0.121	0.115	0.125	0.85	0.428	0.173	0.141	0.132	0.32	0.184	0.157	0.144	0.127
